Ten molecules from ChEMBL document CHEMBL1201862, “PubChem BioAssay data set” (2004) can be followed below.

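Compound exposure: 48 hours, 5 concentrations, 96-well plates. GI50 is the concentration that inhibits growth by half.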 Activity calls are given as the source filed them. No stated cut-off is given here; in the data, active = GI50 up to about 1.1 µM and inactive = higher.

Common to all, as to test: NCI-60 cell line screen, 48 h
The test system of assay [1] is LOX IMVI.
For assay [2], the system named is K562.
In assay [3] the test system is RXF 393.
Assay [4] deals with SK-MEL-28.
The subject of assay [5] is HT-29.
The test system of assay [6] is MOLT-4.
The subject of assay [7] is U-251.
Assay [8] relates to PC-3.
Assay [9] concerns 786-0.
Assay [10] has as its system SF-268.
Assay [11] relates to RPMI-8226.
For assay [12], the system named is NCI-H226.
Assay [13] has as its system SF-295.
The subject of assay [14] is NCI-H522.
Assay [15] has as its system IGROV-1.
In assay [16] the test system is MDA-N.
Assay [17] deals with EKVX.
In assay [18] the test system is UO-31.
The test system of assay [19] is HCT-116.
Assay [20] concerns SK-MEL-5.

Turning to `COc1cc(/C=C2\Cc3cc(OC)c(OC)cc3C2=O)cc(OC)c1`, the GI50 in assay [1] was > 55.7 µM (inactive); in [2] it was 0.479 µM (active); in assay [3] it was 19.8 µM (inactive); in assay [4] it was > 100 µM (inactive); in assay [5] it was > 100 µM (inactive); in assay [6], > 100 µM (inactive). Further, the GI50 is 35.8 µM (inactive) in [7]; > 79.1 µM (inactive) in [8]; 19.2 µM (inactive) in [9]; 45.9 µM (inactive) in [10]; > 33.6 µM (inactive) in [11]; > 100 µM (inactive) in assay [12]. Besides, the GI50 in assay [13] is 4.2 µM (inactive); in assay [14] it was 3.74 µM (inactive); in assay [15] it was 5.93 µM (inactive); in assay [16], 0.771 µM (active); in [17] it was > 100 µM (inactive); in assay [18], > 100 µM (inactive). The GI50 is 21 µM (inactive) in assay [19] and 10.8 µM (inactive) in [20].

On to `NCCC1([N+](=O)[O-])CCNCC1`, for which the GI50 in assay [1] was > 100 µM (inactive); in assay [2], > 100 µM (inactive); in [3] it was > 100 µM (inactive); in assay [4], > 26.8 µM (inactive); in [5], > 100 µM (inactive); in [6] it was > 100 µM (inactive). Moreover, the GI50 in [7], in assay [8], in assay [9], in assay [10], in [11] and in assay [12] was > 100 µM (inactive) in each case. For the same molecule, the GI50 in assay [13] was > 100 µM (inactive); in assay [14] it was > 86.5 µM (inactive); in [15], > 100 µM (inactive); in [16], > 100 µM (inactive); in assay [17] it was > 100 µM (inactive); in [18] it was > 100 µM (inactive). Also, the GI50 in [19] and in [20] was > 100 µM (inactive) each time.

Take `COc1ccc(N2C(N)=C(C#N)C(C#N)(C#N)C2c2cccc([N+](=O)[O-])c2)cc1` (stereo not given): the GI50 in [1] was 13.5 µM (inactive); in assay [2], 2.92 µM (inactive); in [3], 9.23 µM (inactive); in [4] it was 8.57 µM (inactive); in assay [5], 13.9 µM (inactive); in assay [6], 3.78 µM (inactive). The GI50 is 17.4 µM (inactive) in assay [7]; 17.1 µM (inactive) in assay [8]; 14.5 µM (inactive) in assay [9]; 20.6 µM (inactive) in [10]; 11.6 µM (inactive) in assay [11]; 19.8 µM (inactive) in assay [12]. For the same molecule, the GI50 was 19.1 µM (inactive) in assay [13]; 7.14 µM (inactive) in assay [14]; 14.7 µM (inactive) in assay [15]; 17.3 µM (inactive) in assay [16]; 20.7 µM (inactive) in [17]; 17.3 µM (inactive) in [18]. In addition, the GI50 was 9.91 µM (inactive) in assay [19] and 13.4 µM (inactive) in assay [20].

`Nc1nncc2[nH]cnc12`: the GI50 in [1] was 25.5 µM (inactive); in assay [2], 7.01 µM (inactive); in [3], > 100 µM (inactive); in [4], > 100 µM (inactive); in assay [5] it was 39.4 µM (inactive); in [6] it was 10.1 µM (inactive). Also, the GI50 was > 64.3 µM (inactive) in assay [7]; 69 µM (inactive) in assay [8]; 48.3 µM (inactive) in [9]; 50.5 µM (inactive) in [10]; 14.4 µM (inactive) in [11]; > 100 µM (inactive) in assay [12]. For the same molecule, the GI50 was 42.8 µM (inactive) in assay [13]; > 100 µM (inactive) in assay [14]; 57.8 µM (inactive) in [15]; 49.5 µM (inactive) in assay [16]; 52.1 µM (inactive) in assay [17]; > 100 µM (inactive) in [18]. Also, the GI50 was 36.6 µM (inactive) in assay [19] and 24.2 µM (inactive) in assay [20].

For the molecule `Fc1cc(F)c(F)c(S)c1F`, the GI50 is > 100 µM (inactive) in [1]; 57.4 µM (inactive) in [2]; 23.7 µM (inactive) in assay [3]; > 100 µM (inactive) in assay [4]; 92.9 µM (inactive) in [5]; 23.8 µM (inactive) in assay [6]. Besides, the GI50 in assay [7] was > 100 µM (inactive); in assay [8] it was 19.8 µM (inactive); in assay [9] it was > 100 µM (inactive); in assay [10] it was 77.3 µM (inactive); in [11], 31.3 µM (inactive); in assay [12] it was > 100 µM (inactive). In addition, the GI50 in assay [13] is > 100 µM (inactive); in assay [14], 15.5 µM (inactive); in assay [15], > 100 µM (inactive); in assay [16], > 100 µM (inactive); in assay [17], 25.9 µM (inactive); in assay [18], > 100 µM (inactive). The GI50 in assay [19] and in assay [20] was > 100 µM (inactive) each time.

Consider `Clc1ccc(/N=C2\c3ccccc3CN2c2ccc(Cl)cc2)cc1`, for which the GI50 was > 100 µM (inactive) in assay [1]; 0.119 µM (active) in [2]; 29.8 µM (inactive) in [3]; 64 µM (inactive) in assay [4]; 19 µM (inactive) in assay [5]; > 100 µM (inactive) in assay [6]. Moreover, the GI50 in assay [7] was > 100 µM (inactive); in [8], 74.3 µM (inactive); in assay [9], > 100 µM (inactive); in assay [10], 47.1 µM (inactive); in [11], 7.69 µM (inactive); in [12] it was > 100 µM (inactive). Also, the GI50 in assay [13] is 10.4 µM (inactive); in [14] it was 63.2 µM (inactive); in assay [15] it was 39.8 µM (inactive); in assay [16] it was 30.1 µM (inactive); in [17], > 100 µM (inactive); in assay [18] it was > 100 µM (inactive). Further, the figures for the GI50 in assay [19] and in [20] were 41.4 µM (inactive) and 1.43 µM (inactive), respectively.

Turning to `O=P(OCc1ccccc1)(OCc1ccccc1)C(O)/C=C/c1ccccc1` (stereo not given), the GI50 is 14.9 µM (inactive) in [1]; 34.2 µM (inactive) in [2]; 33.8 µM (inactive) in [3]; 37.9 µM (inactive) in assay [4]; 21.3 µM (inactive) in assay [5]; 21.6 µM (inactive) in assay [6]. The GI50 in assay [7] was 13.1 µM (inactive); in assay [8], 28 µM (inactive); in [9], 17.7 µM (inactive); in assay [10] it was 16.9 µM (inactive); in assay [11] it was 23.6 µM (inactive); in assay [12], 34.8 µM (inactive). In addition, the GI50 was 20.3 µM (inactive) in assay [13]; 23.8 µM (inactive) in [14]; 19.6 µM (inactive) in [15]; 17.3 µM (inactive) in assay [16]; 33.3 µM (inactive) in assay [17]; 26.6 µM (inactive) in [18]. Also, the GI50 in [19] is 17.7 µM (inactive); in [20] it was 19.3 µM (inactive).

With `Cc1ccc(-c2c3nc(c(-c4ccc(C)cc4)c4ccc([nH]4)c(-c4ccc(OCC5COC(C)(C)O5)cc4)c4nc(c(-c5ccc(C)cc5)c5ccc2[nH]5)C=C4)C=C3)cc1` (stereo not given), the GI50 in [1] is > 31.6 µM (inactive); in [2] it was > 10 µM (inactive); in assay [3], > 10 µM (inactive); in [4], > 31.6 µM (inactive); in assay [5], > 31.6 µM (inactive); in [6], > 31.6 µM (inactive). The GI50 in assay [7] was > 31.6 µM (inactive); in [8] it was > 10 µM (inactive); in [9], > 31.6 µM (inactive); in [10], > 31.6 µM (inactive); in assay [11], > 100 µM (inactive); in assay [12], > 31.6 µM (inactive). Further, the GI50 in [13] was 20.5 µM (inactive); in assay [14], > 31.6 µM (inactive); in [15], > 31.6 µM (inactive); in [16] it was > 31.6 µM (inactive); in [17], 13.5 µM (inactive); in [18], > 31.6 µM (inactive). The GI50 in assay [19] and in assay [20] was > 31.6 µM (inactive) in each case.

For `CCC(=S)N(C)O`, the GI50 in assay [1] was 10.6 µM (inactive); in assay [2] it was 0.52 µM (active); in [3], 25.9 µM (inactive); in [4], 57.4 µM (inactive); in assay [5], 0.839 µM (active); in assay [6] it was 1.88 µM (inactive). Moreover, the GI50 in [7] is 23.4 µM (inactive); in assay [8] it was 8.69 µM (inactive); in assay [9], 11.6 µM (inactive); in assay [10], 47.4 µM (inactive); in assay [11] it was 0.828 µM (active); in assay [12] it was 54.7 µM (inactive). Also, the GI50 in [13] is 34.2 µM (inactive); in assay [14], 0.41 µM (active); in assay [15] it was 6.93 µM (inactive); in [16], 35.9 µM (inactive); in assay [17] it was 16.5 µM (inactive); in [18], 26.8 µM (inactive). Besides, the GI50 is 2.39 µM (inactive) in assay [19] and 8.55 µM (inactive) in [20].

Turning to `Cc1cc(-c2nc3c(O)cccc3s2)ccc1N`, the GI50 in assay [1] was 17.3 µM (inactive); in assay [2] it was 39.2 µM (inactive); in assay [3], 67.9 µM (inactive); in assay [4], 57.9 µM (inactive); in [5], 21.8 µM (inactive); in [6] it was 25.4 µM (inactive). In addition, the GI50 in assay [7] is 29.6 µM (inactive); in assay [8], 21.2 µM (inactive); in assay [9] it was 29.3 µM (inactive); in assay [10], 21 µM (inactive); in assay [11], 45 µM (inactive); in assay [12], 31.6 µM (inactive). In addition, the GI50 in [13] was 25.9 µM (inactive); in [14] it was 17.2 µM (inactive); in [15], 17 µM (inactive); in assay [16], 25.4 µM (inactive); in [17], 20.2 µM (inactive); in assay [18], 15.8 µM (inactive). Also, the GI50 in assay [19] was 20.4 µM (inactive); in assay [20], 33.2 µM (inactive).
